Data reported in US12215123B2, “Cordycepin-based derivatized compound with anti-tumor effect” (NANJING TECH UNIVERSITY, priority 2022, dated 2025).

System: MC-38 colon cancer cells
Assay: Mouse transplanted colon cancer model
Type: in vivo, C57BL/6j nude mice
Conditions: MC-38 transplanted mice, 28 days, 500 ug/time/animal intragastric (compound daily, antibody every 4 days); control 1,300 mm^3
Description: The feeding of the mouse model in the drug evaluation follows that: mice are fed and treated in a laminar flow cabinet, with 5 nude mice in each cage, drinking water and feedstuffs are added once every 3 days, and paddings are replaced once a week; a number of mice kept in each cage is no more than 5, the mice in separate cages are kept in groups as far as possible, and the mice should not be kept in a single cage; the animal management must conform to the relevant national standards on animal feeding management, and the behavioral needs of animals should be concerned at the same time to avoid unnecessary stress; the normal physiological and behavioral needs of animals, such as defecation, urination, constant body temperature maintenance, normal activities, posture adjustment and reproduction are met; good ventilation and dry animals are kept; the animals can access to drinking water and food at will, and supplementation, replacement and cleaning operations are easily carried out; a solid and safe environment is provided to avoid accidents of animals, such as escaping or limb trapping in a gap; the animals are avoided from being damaged by sharp edges or protrusions; and the animals are not disturbed during observation.
A mouse transplanted colon cancer model was established and a drug was evaluated. […]

Structure (SMILES): Nc1ncnc2c1ncn2[C@@H]1O[C@H](CO)C[C@H]1O [Cordycepin, 3′-deoxyadenosine]
- tumor size: 730 mm^3
